Data from patent US20130295080A1, “Pharmaceutical composition for treating melasma and preparation method thereof” (Jilin Zixin Pharmaceutical Research Institution LLC, priority 2011, published 2013).

What was measured:
Assay type in all cases: in vivo, Kunming female mice
[1] = viscosity of the whole blood of mice with progesterone-induced melasma; conditions: vitamin C group
SOD in mice livers = SOD in mice livers (reagent kit, spectrophotometer); conditions: vitamin C group
MDA in mice livers = assay: MDA content in mice livers; conditions: vitamin C group, dosage 0.1, once a day for 30 d, progesterone-modeled mice
SOD in mice skins = assay: SOD in mice skins; conditions: vitamin C group, dosage 0.1, once a day for 30 d, progesterone-modeled mice
MDA in mice skins = assay: MDA content in mice skins
NO in mice skins = assay: NO content in mice skins; conditions: vitamin C group, dosage 0.1, once a day for 30 d, progesterone-modeled mice
[2] = tested on: melanin cells in skins of mice; assay: melanin cells in skins of mice, HMB45 immunohistochemistry with image analysis; conditions: mouse skin, vitamin C group, progesterone-modeled mice
[3] = dosage 0.1, once a day for 30 d, progesterone-modeled mice
[4] = melanin-positive target, dosage 0.1, once a day for 30 d

O=C1O[C@H]([C@@H](O)CO)C(O)=C1O [vitamin C]
blood viscosity with different shear rates (mPas) 1/s ([1]; shear rate 1/s, dosage 0.1, once a day for 30 d, progesterone-modeled mice): 29.22 ± 2.18 mPas | blood viscosity with different shear rates (mPas) 30/s ([1]; shear rate 30/s, dosage 0.1, once a day for 30 d, progesterone-modeled mice): 11.22 ± 1.75 mPas | blood viscosity with different shear rates (mPas) 100/s ([1]; shear rate 100/s, dosage 0.1, once a day for 30 d, progesterone-modeled mice): 4.60 ± 1.36 mPas | blood viscosities with different shear rates compared with the normal control group [1]: obviously increased | blood viscosity with different shear rates (mPas) 3/3 [1, 3]: 28.85 ± 4.35 mPas | SOD activities compared with the modeling control group (SOD in mice livers): obviously increased | SOD (SOD in mice livers; [3]): 45.62 ± 16.04 | MDA (MDA in mice livers): 4.58 ± 1.26 | SOD (SOD in mice skins): 19.95 ± 5.33 | MDA (MDA in mice skins; vitamin C group, dosage 0.1, once a day for 30 d, progesterone-modeled mice): 4.20 ± 1.34 | MDA contents compared with the modeling control group (MDA in mice skins; vitamin group): obviously decreased | NO (NO in mice skins): 1.71 ± 0.52 | average optical density [2, 4]: 0.33 ± 0.14 | integrated optical density [2, 4]: 1152.52 ± 344.09 | average size of positive target ([2]; dosage 0.1, once a day for 30 d): 3720.56 ± 1191.13
